Literature values in paper PMC10239758 (European journal of medicinal chemistry, 2023).
Converted amounts (≈) assume the structure as drawn.

Tested on: Mtb strain H37Rv
Conditions: cited from earlier work

Cc1cc(C)c2cc(C(=O)NC3CCCCCC3)[nH]c2c1 [Compound 6]
MIC H37Rv: 3.9 ng/mL (≈ 0.0137 µM)
